Experiments:
[1] = tested on: anti-PI-2301 biotinylated antibody (bAb); test: Direct competition ELISA, specificity of the anti-PI-2301 biotinylated antibody; format: binding, rabbit
Method: A direct competition ELISA was carried out for the detection and quantitation of PI-2301, an RSP composition. […] Unbound material was washed away and diluted streptavidin-horseradish peroxidase (HRP) conjugate was added to the wells. After washing away any unbound streptavidin conjugate, substrate for HRP catalyzed […] was added to the wells and incubated, yielding a blue color that turns yellow when stop solution is added. The optical density of the color was measured at 450 nm using a microtiter plate reader (for example, Bio-Tek ELx405) and a standard curve was generated.
Specificity is the ability of a method to measure the material of interest to the exclusion of other similar compounds. In this method, specificity is a function of the anti-PI-2301 biotinylated antibody (bAb). If the bAb recognizes, and binds preferentially to, the compound in the serum the bAb will be washed away and the final A450 value will be low. […] Table 5 summarizes the A450 specificity data for 3 compounds spiked into mouse serum.

[2] = Serum concentration and bioavailability after administration to mice (ELISA); format: in vivo, CD-1 mice
Method: The blood sample was allowed to clot at room temperature for 15-30 minutes and then the tube was centrifuged at 4° C., 10,000 RPM, for 10 minutes in order to isolate serum. Serum was collected, aliquoted, and stored −80° C. for future testing.
After washing away any unbound conjugate, substrate was added to the wells and incubated, yielding a blue color that turned yellow when stop solution was added. The optical density was measured at 450 nm and a standard curve was generated.

HLA-DR2 (DRB1*1501) = HLA-DR2 (DRB1*1501) (Homo sapiens, UniProt P01903+P01911); settings: MS-associated, peptide-specific manner; cited from earlier work
HLA-DR4 (DRB1*0401) = HLA-DR4 (DRB1*0401) (Homo sapiens, UniProt P01903+P01911, A100K/A169T/F76Y/I96L/K127E/L162R/M171V/N62H/P40V/Q125Y/R42H/S133A/S149N/S66Y/V115G/V209L/W38E); settings: RA-associated, peptide-specific manner; cited from earlier work
HLA-DR1 (DRB1*0101) = HLA-DR1 (DRB1*0101) (Homo sapiens, UniProt P01903+P01911, A100R/D57E/F55L/F60I/F76Y/I96L/L162R/M171V/P40L/Q125E/R42F/V115G/Y59C); settings: RA-associated, peptide-specific manner; cited from earlier work
[3] = tested on: myeloid cells isolated from femurs of immunologically naive mice; test: In vitro effects on macrophages: cytokines and chemokines in supernatants; format: cell-based; settings: culture supernatant
Excerpt: Isolated cells were labeled with magnetic beads and T- and B-cells were depleted from the sample. […] TNFα, IL-6, CXCL1 and CXCL2 as inflammatory markers, and IL-12p70, CXCL13, and CCL22 as regulatory markers.

MS = settings: Bornstein 1987; Johnson 1995; cited from earlier work

With glatiramer acetate [Cop-1] the “detection by the antibody for PI-2301” value [1] was “detects Cop-1 efficiently”, the “time of peak serum concentration” value ([2]; after subcutaneous administration to mice) was “about 15 minutes” and the “administered amount available in the plasma (bioavailability)” value ([2]; mice, single subcutaneous or intravenous administration) was “About 8.5%”. For the same substance, the “binding to purified HLA-DR2 (DRB1*1501)” value (HLA-DR2 (DRB1*1501)) was “high affinity”, the “binding to purified HLA-DR4 (DRB1*0401)” value (HLA-DR4 (DRB1*0401)) was “high affinity” and the “binding to purified HLA-DR1 (DRB1*0101)” value (HLA-DR1 (DRB1*0101)) was “high affinity”. For the same substance, the “expression of CXCL1” value [3] was “no significant effect”, the “expression of CXCL2” value [3] was “no significant effect” and the “expression of IL-6” value [3] was “no significant effect”. For the same substance, the “expression of TNFα” value [3] was “no significant effect” and the “effect on MS in patients” value (MS) was “ameliorate MS but does not suppress the disease entirely”.

From US20090275496A1, “Effective quantitation of complex peptide mixtures in tissue samples and improved therapeutic methods” (Peptimmune, Inc., priority 2004, published 2009)
